The target of assay [1] is ASK1 T838 auto phosphorylation in HEK-293T cells (Homo sapiens (Human), UniProt Q99683). The assay can be described thus: ASK1 (AUTO PHOS T838) assay, MSD format. It counts as cell-based. The following applies: HEK 293T cells transfected with ASK1-V5 full length plasmid, compounds 1 hr at 37° C.; read-out: IC50. Here is the method: The plates were incubated at 37° C. overnight. Media on plates was changed to OPTI-MEM, serum free media and cells were transfected with 9 μg of ASK1-V5 tagged full length plasmid using Lipofectamine 2000 (Invitrogen) and the plates were incubated at 37° C. overnight. Cells were trypsinized, counted on Nexcellometer and plated into 96 well tissue culture plates with 100,000 cells/well and 200 μL media. Cells were incubated for 4 hr at 37° C. then ASK1 compounds were added using a HP 300e. Compounds were tested at 20 μM with 3 fold, 10 point dilution points then incubated for 1 hr at 37° C. A lysis buffer (Cell Signaling) was prepared with protease and phosphatase inhibitor and maintained at 4° C. until use. Media from cells was discarded and 120 μL of cold lysis buffer was added to the cells, the plate was shaken 4° C. for 1 hr. Lysate was mixed using Apricot liquid handler; aspirating up and down 16 times at high speed using 50 μL volume. […] Plates were then incubated on a plate shaker overnight at 4° C. Plates were washed 3× with MSD wash buffer and 50 μL of rabbit anti-pASK1 T838 antibody was added to the wells and incubated for 2 hr at room temperature on a plate shaker. Plates were then washed and 50 μL of goat anti-rabbit sulfa-tag (1:500 dilution) was added to wells, and incubated for 1 hr at room temperature on a plate shaker. […] Plates were immediately read on a MSD Instrument Reader where chemoluminecense signal was measured. Data was analyzed using Graph Pad or Genedata, the data was normalized and plotted, % activity versus log of compound concentration. The IC50 values were obtained from a 4 parameter fit.

For the next assay, the target named is ASK1/MAP3K5 (Homo sapiens (Human), UniProt Q99683). The assay can be described thus: ASK1/MAP3K5 assay by Reaction Biology Corp. The assay is classed as biochemical. Here is the method:
ASK1/MAP3K5 was used as the protein kinase and 20 μM of myelin basic protein (MBP) and 10 μM ATP were used as the substrate.

The mark [2] stands for this setting: 20 μM myelin basic protein (MBP), 10 μM ATP.

For 24 compounds, IC50 results are on record in patent US11168095B2, “ASK1 inhibiting agents” (BIOGEN MA INC., priority 2017, dated 2021).

Structures are written as SMILES. Where two headings read alike, the source gives them in different places.

Chain of ASK1 T838 auto phosphorylation in HEK-293T cells (Q99683 whole entry): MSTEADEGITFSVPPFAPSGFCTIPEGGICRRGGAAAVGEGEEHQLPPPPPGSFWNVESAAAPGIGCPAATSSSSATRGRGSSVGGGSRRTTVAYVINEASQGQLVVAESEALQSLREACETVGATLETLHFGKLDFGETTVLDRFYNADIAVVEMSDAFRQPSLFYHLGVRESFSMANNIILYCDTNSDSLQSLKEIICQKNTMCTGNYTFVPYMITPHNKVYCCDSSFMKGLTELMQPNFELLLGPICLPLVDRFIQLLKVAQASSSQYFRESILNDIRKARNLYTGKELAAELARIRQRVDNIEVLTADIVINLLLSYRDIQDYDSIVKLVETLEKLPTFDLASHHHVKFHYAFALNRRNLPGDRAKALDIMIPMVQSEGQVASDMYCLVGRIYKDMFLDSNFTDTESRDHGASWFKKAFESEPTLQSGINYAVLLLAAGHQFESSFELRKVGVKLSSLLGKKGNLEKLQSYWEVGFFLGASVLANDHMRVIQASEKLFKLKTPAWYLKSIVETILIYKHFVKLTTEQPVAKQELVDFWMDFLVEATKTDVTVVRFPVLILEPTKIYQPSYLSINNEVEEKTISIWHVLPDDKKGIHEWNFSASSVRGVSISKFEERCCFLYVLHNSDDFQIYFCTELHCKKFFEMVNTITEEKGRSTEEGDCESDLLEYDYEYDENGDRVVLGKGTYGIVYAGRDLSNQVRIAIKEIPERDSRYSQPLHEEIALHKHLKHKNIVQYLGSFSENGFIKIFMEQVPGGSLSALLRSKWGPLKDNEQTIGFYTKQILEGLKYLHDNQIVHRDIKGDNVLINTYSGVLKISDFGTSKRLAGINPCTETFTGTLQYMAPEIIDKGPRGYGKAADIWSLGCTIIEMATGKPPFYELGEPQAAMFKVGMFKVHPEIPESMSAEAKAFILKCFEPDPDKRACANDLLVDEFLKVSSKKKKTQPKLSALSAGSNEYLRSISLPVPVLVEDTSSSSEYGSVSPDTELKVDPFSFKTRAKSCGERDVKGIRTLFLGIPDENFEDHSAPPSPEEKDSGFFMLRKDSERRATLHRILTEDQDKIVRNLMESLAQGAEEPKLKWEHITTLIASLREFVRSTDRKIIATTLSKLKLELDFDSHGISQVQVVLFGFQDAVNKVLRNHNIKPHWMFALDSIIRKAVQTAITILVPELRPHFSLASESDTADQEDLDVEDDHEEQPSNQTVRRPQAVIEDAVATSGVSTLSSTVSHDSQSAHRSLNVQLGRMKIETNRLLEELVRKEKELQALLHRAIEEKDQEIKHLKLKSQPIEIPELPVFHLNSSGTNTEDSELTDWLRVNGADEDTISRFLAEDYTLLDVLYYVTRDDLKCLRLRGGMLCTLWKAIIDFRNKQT
Chain of ASK1/MAP3K5 (Q99683 whole entry): as above

For orientation: IC50 means the concentration needed to halve the response being measured. On to `CN(C)CCOc1cc2c(cc1F)OCCCCn1cnnc1-c1cccc(n1)NC2=O` [Example 76, 5^5-(2-(Dimethylamino)ethoxy)-5^4-fluoro-1^4H-6-oxa-3-aza-2(2,6)-pyridina-1(3,4)-triazola-5(1,2)-benzenacyclodecaphan-4-one], for which the half-inhibitory concentration (IC50) in assay [1] is < 1000 nM; at ASK1/MAP3K5, < 100 nM.

Turning to `CN1CC=C(c2ccc3c(c2)OCCCCn2cnnc2-c2cccc(n2)NC3=O)CC1` [Example 78, 5^4-(1-Methyl-1,2,3,6-tetrahydropyridin-4-yl)-1^4H-6-oxa-3-aza-2(2,6)-pyridina-1(3,4)-triazola-5(1,2)-benzenacyclodecaphan-4-one], the values for the IC50 (in assay [1]; on ASK1/MAP3K5) were < 1000 nM and < 100 nM, respectively.

As for `CN1CCC(c2ccc3c(c2)OCCCCn2cnnc2-c2cccc(n2)NC3=O)CC1` [Example 79, 5^4-(1-Methylpiperidin-4-yl)-1^4H-6-oxa-3-aza-2(2,6)-pyridina-1(3,4)-triazola-5(1,2)-benzenacyclodecaphan-4-one], the IC50 is < 1000 nM in assay [1] and < 100 nM at ASK1/MAP3K5 (setting [2]).

With `O=C1Nc2cccc(n2)-c2nncn2CCCCOc2cc(N3CCOCC3)ccc21` [Example 80, 5^4-Morpholino-1^4H-6-oxa-3-aza-2(2,6)-pyridina-1(3,4)-triazola-5(1,2)-benzenacyclodecaphan-4-one], the IC50 was < 1000 nM in assay [1] and < 100 nM against ASK1/MAP3K5 (setting [2]).

`CN1CCN(c2ccc3c(c2)OCCCCn2cnnc2-c2cccc(n2)NC3=O)CC1` [Example 81, 5^4-(4-Methylpiperazin-1-yl)-1^4H-6-oxa-3-aza-2(2,6)-pyridina-1(3,4)-triazola-5(1,2)-benzenacyclodecaphan-4-one]: the values for the IC50 (in assay [1]; on ASK1/MAP3K5 (setting [2])) were < 1000 nM and < 100 nM, respectively.

For the compound `C[C@H]1CN(C)CCN1c1ccc2c(c1)OCCCCn1cnnc1-c1cccc(n1)NC2=O` [Example 82, (S)-5^4-(2,4-Dimethylpiperazin-1-yl)-1^4H-6-oxa-3-aza-2(2,6)-pyridina-1(3,4)-triazola-5(1,2)-benzenacyclodecaphan-4-one], the IC50 in assay [1] was < 1000 nM; at ASK1/MAP3K5 (setting [2]), < 100 nM.

`C[C@@H]1CN(C)CCN1c1ccc2c(c1)OCCCCn1cnnc1-c1cccc(n1)NC2=O` [Example 83, (R)-5^4-(2,4-Dimethylpiperazin-1-yl)-1^4H-6-oxa-3-aza-2(2,6)-pyridina-1(3,4)-triazola-5(1,2)-benzenacyclodecaphan-4-one]: the half-maximal inhibitory concentration (IC50) in assay [1] was < 1000 nM; against ASK1/MAP3K5 (setting [2]) it was < 100 nM.

For the compound `Cn1cc(-c2ccc3c(c2)OCCCCn2cnnc2-c2cccc(n2)NC3=O)cn1` [Example 84, 5^4-(1-Methyl-1H-pyrazol-4-yl)-1^4H-6-oxa-3-aza-2(2,6)-pyridina-1(3,4)-triazola-5(1,2)-benzenacyclodecaphan-4-one], the results for the IC50 (in assay [1]; against ASK1/MAP3K5 (setting [2])) were < 1000 nM and < 100 nM, respectively.

`CN1CC=C(c2cc3c(cc2F)C(=O)Nc2cccc(n2)-c2nncn2CCCCO3)CC1` [Example 85, 5^5-Fluoro-5^4-(1-methyl-1,2,3,6-tetrahydropyridin-4-yl)-1^4H-6-oxa-3-aza-2(2,6)-pyridina-1(3,4)-triazola-5(1,2)-benzenacyclodecaphan-4-one]: the concentration for half-maximal inhibition (IC50) in assay [1] is < 1000 nM; at ASK1/MAP3K5 (setting [2]), < 100 nM.

As for `CN1CCC(c2cc3c(cc2F)C(=O)Nc2cccc(n2)-c2nncn2CCCCO3)CC1` [Example 86, 5^5-Fluoro-5^4-(1-methylpiperidin-4-yl)-1^4H-6-oxa-3-aza-2(2,6)-pyridina-1(3,4)-triazola-5(1,2)-benzenacyclodecaphan-4-one], the half-maximal inhibitory concentration (IC50) in assay [1] is < 1000 nM; against ASK1/MAP3K5 (setting [2]), < 100 nM.

`O=C1Nc2cccc(n2)-c2nncn2CCCCOc2cc(N3CCOCC3)c(F)cc21` [Example 87, 5^5-Fluoro-5^4-morpholino-1^4H-6-oxa-3-aza-2(2,6)-pyridina-1(3,4)-triazola-5(1,2)-benzenacyclodecaphan-4-one]: the figures for the IC50 (in assay [1]; against ASK1/MAP3K5 (setting [2])) were < 1000 nM and < 100 nM, respectively.

In the case of `COCCNc1cc2c(cc1F)C(=O)Nc1cccc(n1)-c1nncn1CCCCO2` [Example 88, 5^5-Fluoro-5^4-((2-methoxyethyl)amino)-1^4H-6-oxa-3-aza-2(2,6)-pyridina-1(3,4)-triazola-5(1,2)-benzenacyclodecaphan-4-one], the IC50 in assay [1] was < 1000 nM; against ASK1/MAP3K5 (setting [2]) it was < 100 nM.

Regarding `C[C@H]1CCCOc2ccc(F)cc2C(=O)Nc2cccc(n2)-c2nncn21` [Example 99, (S)-5^5-Fluoro-10-methyl-1^4H-6-oxa-3-aza-2(2,6)-pyridina-1(3,4)-triazola-5(1,2)-benzenacyclodecaphan-4-one], the IC50 in assay [1] is < 1000 nM; against ASK1/MAP3K5 (setting [2]), < 100 nM.

For the compound `C[C@@H]1CCCOc2ccc(F)cc2C(=O)Nc2cccc(n2)-c2nncn21` [Example 100, (R)-5^5-Fluoro-10-methyl-1^4H-6-oxa-3-aza-2(2,6)-pyridina-1(3,4)-triazola-5(1,2)-benzenacyclodecaphan-4-one], the half-maximal inhibitory concentration (IC50) in assay [1] lay within 1000 to 10000 nM; against ASK1/MAP3K5 (setting [2]), 100 to 1000 nM.

With `C[C@H]1CCCOc2cc(F)c(Br)cc2C(=O)Nc2cccc(n2)-c2nncn21` [Example 101, (S)-5^5-Bromo-5^4-fluoro-10-methyl-1^4H-6-oxa-3-aza-2(2,6)-pyridina-1(3,4)-triazola-5(1,2)-benzenacyclodecaphan-4-one], the results for the IC50 (in assay [1]; on ASK1/MAP3K5 (setting [2])) were < 1000 nM and < 100 nM, respectively.

Take `C[C@@H]1CCCOc2cc(F)c(Br)cc2C(=O)Nc2cccc(n2)-c2nncn21` [Example 102, (R)-5^5-Bromo-5^4-fluoro-10-methyl-1^4H-6-oxa-3-aza-2(2,6)-pyridina-1(3,4)-triazola-5(1,2)-benzenacyclodecaphan-4-one]: the IC50 in assay [1] is > 10000 nM; against ASK1/MAP3K5 (setting [2]) it was 1000 to 10000 nM.

Take `C[C@H]1CCCOc2cc(F)c(N3CCOCC3)cc2C(=O)Nc2cccc(n2)-c2nncn21` [Example 103, (S)-5^4-Fluoro-10-methyl-5^5-morpholino-1^4H-6-oxa-3-aza-2(2,6)-pyridina-1(3,4)-triazola-5(1,2)-benzenacyclodecaphan-4-one]: the values for the IC50 (in assay [1]; against ASK1/MAP3K5 (setting [2])) were < 1000 nM and < 100 nM, respectively.

As for `C[C@H]1CCCOc2cc(F)c(N3CC4CC(C3)O4)cc2C(=O)Nc2cccc(n2)-c2nncn21` [Example 104, (10S)-5^5-(6-Oxa-3-azabicyclo[3.1.1]heptan-3-yl)-5^4-fluoro-10-methyl-1^4H-6-oxa-3-aza-2(2,6)-pyridina-1(3,4)-triazola-5(1,2)-benzenacyclodecaphan-4-one], the concentration for half-maximal inhibition (IC50) in assay [1] was < 1000 nM; against ASK1/MAP3K5 (setting [2]) it was < 100 nM.

Take `C[C@H]1CCCOc2cc(F)c(C3=CCN(C)CC3)cc2C(=O)Nc2cccc(n2)-c2nncn21` [Example 106, (S)-5^4-Fluoro-10-methyl-5^5-(1-methyl-1,2,3,6-tetrahydropyridin-4-yl)-1^4H-6-oxa-3-aza-2(2,6)-pyridina-1(3,4)-triazola-5(1,2)-benzenacyclodecaphan-4-one]: the IC50 in assay [1] was < 1000 nM; against ASK1/MAP3K5 (setting [2]), < 100 nM.

Take `C[C@H]1CCCOc2cc(F)c(C3CCN(C)CC3)cc2C(=O)Nc2cccc(n2)-c2nncn21` [Example 107, (S)-5^4-Fluoro-10-methyl-5^5-(1-methylpiperidin-4-yl)-1^4H-6-oxa-3-aza-2(2,6)-pyridina-1(3,4)-triazola-5(1,2)-benzenacyclodecaphan-4-one]: the concentration for half-maximal inhibition (IC50) in assay [1] was < 1000 nM; against ASK1/MAP3K5 (setting [2]), < 100 nM.

As for `C[C@H]1CCCOc2cc(F)c(C3=CCOCC3)cc2C(=O)Nc2cccc(n2)-c2nncn21` [Example 108, (S)-5^5-(3,6-Dihydro-2H-pyran-4-yl)-5^4-fluoro-10-methyl-1^4H-6-oxa-3-aza-2(2,6)-pyridina-1(3,4)-triazola-5(1,2)-benzenacyclodecaphan-4-one], the IC50 was < 1000 nM in assay [1] and < 100 nM at ASK1/MAP3K5 (setting [2]).

Turning to `C[C@H]1CCCOc2cc(F)c(-c3cncnc3)cc2C(=O)Nc2cccc(n2)-c2nncn21` [Example 110, (S)-5^4-Fluoro-10-methyl-5^5-(pyrimidin-5-yl)-1^4H-6-oxa-3-aza-2(2,6)-pyridina-1(3,4)-triazola-5(1,2)-benzenacyclodecaphan-4-one], the IC50 is < 1000 nM in assay [1] and < 100 nM at ASK1/MAP3K5 (setting [2]).

As for `C[C@H]1CCCOc2cc(F)c(-c3cncc(C(F)(F)F)c3)cc2C(=O)Nc2cccc(n2)-c2nncn21` [Example 111, (S)-5^4-Fluoro-10-methyl-5^5-(5-(trifluoromethyl)pyridin-3-yl)-1^4H-6-oxa-3-aza-2(2,6)-pyridina-1(3,4)-triazola-5(1,2)-benzenacyclodecaphan-4-one], the IC50 was < 1000 nM in assay [1] and < 100 nM against ASK1/MAP3K5 (setting [2]).

Turning to `C[C@H]1CCCOc2cc(F)c(-c3ccncc3)cc2C(=O)Nc2cccc(n2)-c2nncn21` [Example 112, (S)-5^4-Fluoro-10-methyl-5^5-(pyridin-4-yl)-1^4H-6-oxa-3-aza-2(2,6)-pyridina-1(3,4)-triazola-5(1,2)-benzenacyclodecaphan-4-one], the IC50 in assay [1] is < 1000 nM; on ASK1/MAP3K5 (setting [2]), < 100 nM.
